Data: publication PMC4349892, “Biochemical Characterization of Three BLT Receptors in Zebrafish” (PLoS ONE, 2015)

Key:
Assay type in all cases: biochemical
Settings in all cases: agonist; pH 7.4 (calcium); GTPγS binding at 1 μM ligand, 30°C; dose-response curves only in figures
zebrafish Blt2b [1] = target: T1, zebrafish Blt2b (Danio rerio, UniProt E7F4K9); assay: calcium mobilization (Fluo-8), […]GTPγS binding, cAMP inhibition, TGFα shedding
T1 construct: gene ltb4r2b; also HEK293 with Gq/i1; LC009451 assigned by order of listing
T1 sequence (E7F4K9 1-339): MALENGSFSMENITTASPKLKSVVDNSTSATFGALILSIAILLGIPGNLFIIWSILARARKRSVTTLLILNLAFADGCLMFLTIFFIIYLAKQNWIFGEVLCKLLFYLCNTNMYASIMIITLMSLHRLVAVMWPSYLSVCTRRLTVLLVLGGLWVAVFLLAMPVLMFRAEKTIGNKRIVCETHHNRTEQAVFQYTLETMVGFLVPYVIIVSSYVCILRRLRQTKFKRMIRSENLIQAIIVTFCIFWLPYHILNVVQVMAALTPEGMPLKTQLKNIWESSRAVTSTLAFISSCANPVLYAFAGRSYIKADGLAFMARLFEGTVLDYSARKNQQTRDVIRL

hBLT2 [2] = target: T2, hBLT2 (Homo sapiens, UniProt Q9NPC1); assay: as above
T2 construct: gene LTB4R2; also HEK293 with Gq/i1
T2 sequence (Q9NPC1 1-358): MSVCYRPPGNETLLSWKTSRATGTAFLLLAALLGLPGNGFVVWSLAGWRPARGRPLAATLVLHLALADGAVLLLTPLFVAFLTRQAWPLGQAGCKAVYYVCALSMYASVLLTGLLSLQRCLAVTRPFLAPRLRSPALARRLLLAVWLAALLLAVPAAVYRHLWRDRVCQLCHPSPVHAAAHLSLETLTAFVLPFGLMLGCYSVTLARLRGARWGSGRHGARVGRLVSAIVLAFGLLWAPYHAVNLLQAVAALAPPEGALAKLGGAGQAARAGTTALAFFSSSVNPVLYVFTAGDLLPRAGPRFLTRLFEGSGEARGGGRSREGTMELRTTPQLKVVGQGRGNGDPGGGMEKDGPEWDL

zebrafish Blt2a = target: T3, zebrafish Blt2a (Danio rerio, UniProt A0A0A8JZN4); assay: calcium mobilization (Fluo-8), […]GTPγS binding, TGFα shedding
T3 construct: gene ltb4r2a; also HEK293 with Gq/i1; LC009450 assigned by order of listing
T3 sequence (A0A0A8JZN4 1-382): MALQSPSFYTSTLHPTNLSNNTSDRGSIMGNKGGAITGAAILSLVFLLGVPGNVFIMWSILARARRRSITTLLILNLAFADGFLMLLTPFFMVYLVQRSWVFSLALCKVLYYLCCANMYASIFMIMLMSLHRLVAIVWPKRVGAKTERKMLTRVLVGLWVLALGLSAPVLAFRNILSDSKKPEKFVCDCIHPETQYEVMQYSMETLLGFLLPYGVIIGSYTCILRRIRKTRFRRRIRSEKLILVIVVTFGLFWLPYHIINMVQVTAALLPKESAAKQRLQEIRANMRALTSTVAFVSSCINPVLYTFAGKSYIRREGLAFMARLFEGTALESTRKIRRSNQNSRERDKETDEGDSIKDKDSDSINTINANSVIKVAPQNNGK

hBLT2 [3] = target: T2, hBLT2
zebrafish Blt1 = target: T4, zebrafish Blt1 (Danio rerio, UniProt A0A0A8JWS4); assay: calcium mobilization (Fluo-8), […]GTPγS binding, cAMP inhibition, TGFα shedding
T4 construct: gene ltb4r; also HEK293 with Gq/i1
T4 sequence (A0A0A8JWS4 1-380): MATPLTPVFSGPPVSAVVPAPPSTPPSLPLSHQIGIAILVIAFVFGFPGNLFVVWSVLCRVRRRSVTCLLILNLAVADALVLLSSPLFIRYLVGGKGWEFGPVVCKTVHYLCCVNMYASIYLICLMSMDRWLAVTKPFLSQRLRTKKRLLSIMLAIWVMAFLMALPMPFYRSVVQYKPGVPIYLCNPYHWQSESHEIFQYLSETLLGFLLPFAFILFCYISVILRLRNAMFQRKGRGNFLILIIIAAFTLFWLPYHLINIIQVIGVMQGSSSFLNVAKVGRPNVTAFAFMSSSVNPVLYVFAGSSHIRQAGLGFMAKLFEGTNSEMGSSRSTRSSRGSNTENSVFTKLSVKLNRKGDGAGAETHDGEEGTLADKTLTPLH

hBLT1 = target: T5, hBLT1 (Homo sapiens, UniProt Q15722); assay: as above
T5 construct: gene LTB4R; also HEK293 with Gq/i1

zebrafish Blt2b [4] = target: T1, zebrafish Blt2b; assay: calcium mobilization (Fluo-8), […]GTPγS binding, TGFα shedding

T5 sequence (Q15722 whole entry): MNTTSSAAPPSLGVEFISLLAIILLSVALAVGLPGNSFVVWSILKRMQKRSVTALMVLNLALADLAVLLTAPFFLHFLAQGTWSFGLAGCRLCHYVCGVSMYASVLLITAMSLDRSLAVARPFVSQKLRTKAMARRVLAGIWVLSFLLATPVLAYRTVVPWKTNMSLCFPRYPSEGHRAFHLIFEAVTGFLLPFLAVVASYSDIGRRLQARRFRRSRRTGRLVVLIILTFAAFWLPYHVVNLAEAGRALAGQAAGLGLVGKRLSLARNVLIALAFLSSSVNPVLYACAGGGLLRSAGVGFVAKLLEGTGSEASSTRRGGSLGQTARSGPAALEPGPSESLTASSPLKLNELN

Row | SMILES | calcium mobilization (Fluo-8), [35S]GTPγS binding, cAMP inhibition, TGFα sheddin (zebrafish Blt2b [1]) | calcium mobilization (Fluo-8), [35S]GTPγS binding, cAMP inhibition, TGFα sheddin (hBLT2 [2]) | calcium mobilization (Fluo-8), [35S]GTPγS binding, TGFα shedding (zebrafish Blt2a) | calcium mobilization (Fluo-8), [35S]GTPγS binding, TGFα shedding (hBLT2 [3]) | calcium mobilization (Fluo-8), [35S]GTPγS binding, cAMP inhibition, TGFα sheddin (zebrafish Blt1) | calcium mobilization (Fluo-8), [35S]GTPγS binding, cAMP inhibition, TGFα sheddin (hBLT1) | calcium mobilization (Fluo-8), [35S]GTPγS binding, TGFα shedding (zebrafish Blt2b [4])
1 | CCCCC[C@H](O)/C=C/C=C/C/C=C\CCCC(=O)O [12-HHT, 12(S)-hydroxy-5-cis-8,10-trans-heptadecatrienoic acid] | 12-HHT activated zebrafish Blt2a and Blt2b at lower doses than LTB4 | exhibited a dose-dependent increase in response to either 12-HHT or LTB4 stimulation | – | – | – | – | –
2 | CCCCC/C=C\C[C@@H](O)/C=C/C=C/C=C\[C@@H](O)CCCC(=O)O [LTB4] | – | – | exhibited a dose-dependent increase in response to either 12-HHT or LTB4 stimulation | exhibited a dose-dependent increase in response to either 12-HHT or LTB4 stimulation | intracellular free calcium concentration increased in a dose-dependent manner in response to LTB4 stimulation | intracellular free calcium concentration increased in a dose-dependent manner in response to LTB4 stimulation | exhibited a dose-dependent increase in response to either 12-HHT or LTB4 stimulation
